Test results: the supplement of paper PMC4862054

Key:
Conditions in all cases: 72 h
MDA-MB-468 [1] = system: MDA-MB-468
Protocol: (§1)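 Drug sensitivity and resistance testing (DSRT) of breast cancer cell lines in 384-well plates, 5 concentrations in 10-fold dilutions over a compound-specific 10,000-fold range. After 72 h, cytotoxicity was read by CellTox Green fluorescence and viability by CellTiter-Glo luminescence (multiplexed), normalised to DMSO and benzethonium chloride controls. EC50 is the inflection point of the fitted dose-response curve (bottom asymptote free, so it can be relative for partial curves) and is censored at the highest tested concentration. Rows with DSS 0 (no meaningful response) were excluded.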

MDA-MB-231 [2] = system: MDA-MB-231
Protocol: as §1

HDQ-P1 [3] = system: HDQ-P1
Procedure, shortened: (§2)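 EC50 was fitted from dose-response curves and censored at the highest concentration tested. To build those curves, breast cancer cell lines (20 µl suspension) were seeded into 384-well plates containing compound at 5 concentrations in 10-fold steps over a compound-specific 10,000-fold range and incubated for 72 h. Readouts were CellTox Green fluorescence (485/520 nm) for cell death and then CellTiter-Glo luminescence for viability, with each plate normalised to 0.1 % DMSO and a positive kill control.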

MDA-MB-468 [4] = system: MDA-MB-468; remark: listed apart in the source
Procedure, shortened: as §2

CAL-120 [5] = system: CAL-120
Procedure, shortened: as §2

MDA-MB-436 [6] = system: MDA-MB-436
Procedure, shortened: as §2

BT-549 [7] = system: BT-549
Procedure, shortened: as §2

MDA-MB-231 [8] = system: MDA-MB-231; remark: listed apart in the source
Procedure, shortened: as §2

BT-474 [9] = system: BT-474
Procedure, shortened: as §2

Hs578T [10] = system: Hs578T
Protocol: as §1

HCC1599 [11] = system: HCC1599
Procedure, shortened: (§3)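 Viability of breast cancer cell lines was measured with CellTiter-Blue after 72 h of incubation on compound-loaded 384-well plates. Cells were seeded in 20 µl onto compound dissolved in 5 µl medium, and 2.5 µl reagent was added for 2 h at 37 °C before reading at 560/590 nm. EC50 was fitted from percent-inhibition dose-response data censored at the highest concentration, normalised per plate to vehicle and a positive kill control, with zero drug sensitivity score rows dropped.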

CAL-120 [12] = system: CAL-120; remark: listed apart in the source
Procedure, shortened: as §3

MDA-MB-436 [13] = system: MDA-MB-436; remark: listed apart in the source
Procedure, shortened: as §3

BT-549 [14] = system: BT-549; remark: listed apart in the source
Procedure, shortened: as §3

Hs578T [15] = system: Hs578T; remark: listed apart in the source
Procedure, shortened: as §3

MDA-MB-231 [16] = system: MDA-MB-231; remark: listed apart in the source
Procedure, shortened: as §3

HCC1143 [17] = system: HCC1143
Procedure, shortened: as §3

MFM-223 [18] = system: MFM-223
Procedure, shortened: as §3

BT-474 [19] = system: BT-474; remark: listed apart in the source
Procedure, shortened: as §3

HDQ-P1 [20] = system: HDQ-P1; remark: listed apart in the source
Procedure, shortened: as §3

DU-4475 [21] = system: DU-4475
Procedure, shortened: as §3

CAL-51 [22] = system: CAL-51
Procedure, shortened: as §3

CAL-85-1 [23] = system: CAL-85-1
Procedure, shortened: as §3

CAL-148 [24] = system: CAL-148
Procedure, shortened: as §3

MDA-MB-453 = system: MDA-MB-453
Procedure, shortened: as §3

CAL-51 [25] = system: CAL-51; remark: listed apart in the source
Procedure, shortened: as §2

CAL-85-1 [26] = system: CAL-85-1; remark: listed apart in the source
Procedure, shortened: as §2

Hs578T [27] = system: Hs578T; remark: listed apart in the source
Procedure, shortened: as §2

HCC1937 = system: HCC1937
Procedure, shortened: as §2

SK-BR-3 = system: SK-BR-3
Procedure, shortened: as §2

CAL-51 [28] = system: CAL-51; remark: listed apart in the source
Protocol: as §1

MDA-MB-436 [29] = system: MDA-MB-436; remark: listed apart in the source
Protocol: as §1

BT-549 [30] = system: BT-549; remark: listed apart in the source
Protocol: as §1

DU-4475 [31] = system: DU-4475; remark: listed apart in the source
Procedure, shortened: as §2

CAL-148 [32] = system: CAL-148; remark: listed apart in the source
Procedure, shortened: as §2

HCC1143 [33] = system: HCC1143; remark: listed apart in the source
Procedure, shortened: as §2

HCC1599 [34] = system: HCC1599; remark: listed apart in the source
Procedure, shortened: as §2

MFM-223 [35] = system: MFM-223; remark: listed apart in the source
Procedure, shortened: as §2

Structure (SMILES): CC[C@H](Nc1ncnc2[nH]cnc12)c1nc2cccc(F)c2c(=O)n1-c1ccccc1 [GS-1101]
- EC50, CellTox Green (MDA-MB-468 [1]): 1430 nM
- EC50, CellTox Green (MDA-MB-231 [2]): 8630 nM
- EC50, CellTiter-Glo (HDQ-P1 [3]): 4300 nM
- EC50, CellTiter-Glo (MDA-MB-468 [4]): 7440 nM
- EC50, CellTiter-Glo (CAL-120 [5]): 8050 nM
- EC50, CellTiter-Glo (MDA-MB-436 [6]): 6900 nM
- EC50, CellTiter-Glo (BT-549 [7]): 4670 nM
- EC50, CellTiter-Glo (MDA-MB-231 [8]): 4740 nM
- EC50, CellTiter-Glo (BT-474 [9]): 2950 nM

Structure (SMILES): N#Cc1ccc(C(c2ccc(C#N)cc2)n2cncn2)cc1 [Letrozole]
- EC50, CellTox Green (Hs578T [10]): > 10000 nM
- EC50, CellTiter-Blue viability (HCC1599 [11]): 311 nM

Structure (SMILES): CCN(CC)CCCC(C)Nc1c2ccc(Cl)cc2nc2ccc(OC)cc12 (stereo not given) [Mepacrine]
- EC50, CellTox Green (MDA-MB-468 [1]): > 50000 nM
- EC50, CellTiter-Blue viability (CAL-120 [12]): 1120 nM
- EC50, CellTiter-Blue viability (MDA-MB-436 [13]): 1290 nM
- EC50, CellTiter-Blue viability (BT-549 [14]): 1440 nM
- EC50, CellTiter-Blue viability (Hs578T [15]): 1980 nM
- EC50, CellTiter-Blue viability (MDA-MB-231 [16]): 614 nM
- EC50, CellTiter-Blue viability (HCC1143 [17]): 1520 nM
- EC50, CellTiter-Blue viability (MFM-223 [18]): 2220 nM
- EC50, CellTiter-Blue viability (BT-474 [19]): 1760 nM
- EC50, CellTiter-Blue viability (HDQ-P1 [20]): 833 nM
- EC50, CellTiter-Blue viability (DU-4475 [21]): 1600 nM
- EC50, CellTiter-Blue viability (CAL-51 [22]): 1950 nM
- EC50, CellTiter-Blue viability (CAL-85-1 [23]): 1800 nM
- EC50, CellTiter-Blue viability (CAL-148 [24]): 1140 nM
- EC50, CellTiter-Blue viability (MDA-MB-453): 1260 nM

Structure (SMILES): C[C@H]1C[C@@H]2[C@H]([C@@H](O)C[C@@]3(C)[C@H]2CC[C@]3(O)C(=O)CO)[C@@]2(C)C=CC(=O)C=C12 [Methylprednisolone]
- EC50, CellTiter-Blue viability (BT-549 [14]): 520 nM
- EC50, CellTiter-Glo (CAL-120 [5]): 23.5 nM
- EC50, CellTiter-Blue viability (MDA-MB-453): 27.7 nM

Structure (SMILES): O=C(O)C(=O)O.[NH-][C@@H]1CCCC[C@H]1[NH-].[Pt+2] [Oxaliplatin]
- EC50, CellTiter-Blue viability (MDA-MB-436 [13]): 4310 nM
- EC50, CellTiter-Blue viability (BT-549 [14]): 3550 nM
- EC50, CellTiter-Blue viability (HCC1143 [17]): 8310 nM
- EC50, CellTiter-Blue viability (HCC1599 [11]): 820 nM
- EC50, CellTiter-Blue viability (DU-4475 [21]): 9220 nM
- EC50, CellTiter-Blue viability (CAL-51 [22]): 9110 nM
- EC50, CellTiter-Blue viability (CAL-148 [24]): 5670 nM
- EC50, CellTiter-Blue viability (MDA-MB-453): 7470 nM

Structure (SMILES): Nc1nc2[nH]cc(CCc3ccc(C(=O)N[C@@H](CCC(=O)O)C(=O)O)cc3)c2c(=O)[nH]1 [Pemetrexed]
- EC50, CellTox Green (MDA-MB-468 [1]): 8620 nM
- EC50, CellTox Green (Hs578T [10]): 9350 nM
- EC50, CellTox Green (MDA-MB-231 [2]): 2830 nM
- EC50, CellTiter-Blue viability (CAL-120 [12]): > 10000 nM
- EC50, CellTiter-Blue viability (HCC1143 [17]): > 10000 nM
- EC50, CellTiter-Glo (CAL-51 [25]): 2.23 nM
- EC50, CellTiter-Glo (MDA-MB-436 [6]): 30.3 nM
- EC50, CellTiter-Glo (CAL-85-1 [26]): 41.1 nM
- EC50, CellTiter-Glo (Hs578T [27]): 47.4 nM
- EC50, CellTiter-Glo (HCC1937): 64.1 nM
- EC50, CellTiter-Glo (MDA-MB-231 [8]): 652 nM
- EC50, CellTiter-Glo (SK-BR-3): 23.1 nM
- EC50, CellTiter-Glo (BT-474 [9]): 408 nM
- EC50, CellTiter-Blue viability (CAL-85-1 [23]): 878 nM

Structure (SMILES): CC[C@H](C)C(=O)O[C@H]1C[C@H](O)C=C2C=C[C@H](C)[C@H](CC[C@@H](O)C[C@@H](O)CC(=O)O)[C@H]21 [Pravastatin]
- EC50, CellTox Green (MDA-MB-468 [1]): 5470 nM
- EC50, CellTox Green (CAL-51 [28]): 3380 nM
- EC50, CellTox Green (MDA-MB-436 [29]): 15.7 nM
- EC50, CellTox Green (BT-549 [30]): > 10000 nM
- EC50, CellTiter-Glo (HDQ-P1 [3]): 4740 nM
- EC50, CellTiter-Glo (DU-4475 [31]): 6590 nM
- EC50, CellTiter-Glo (MDA-MB-468 [4]): 5910 nM
- EC50, CellTiter-Glo (CAL-120 [5]): 2310 nM
- EC50, CellTiter-Glo (CAL-51 [25]): 78 nM
- EC50, CellTiter-Glo (MDA-MB-436 [6]): 27.6 nM
- EC50, CellTiter-Glo (BT-549 [7]): 2640 nM
- EC50, CellTiter-Glo (CAL-85-1 [26]): 8620 nM
- EC50, CellTiter-Glo (HCC1937): 5960 nM
- EC50, CellTiter-Glo (CAL-148 [32]): 6540 nM
- EC50, CellTiter-Glo (HCC1143 [33]): 2450 nM
- EC50, CellTiter-Glo (HCC1599 [34]): 3060 nM
- EC50, CellTiter-Glo (MFM-223 [35]): > 10000 nM
- EC50, CellTiter-Glo (SK-BR-3): 3820 nM
- EC50, CellTiter-Glo (BT-474 [9]): 2340 nM
